Data on three compounds can be found in EP3233044B1, “ANHYDROUS COSMETIC COMPOSITION FOR TOPICAL APPLICATION IN INTIMATE AREAS” (The Procter & Gamble Company, priority 2014, dated 2016).

The nature of series [1]: Solubility of Vitamin B5 derivatives in anhydrous stick formulations. The format is physicochemical. The text has this:
Additional considerations regarding exemplary Vitamin B5 derivatives may apply. For example, in order to deliver Vitamin B5 (or a derivative thereof) from an anhydrous, hydrophobic, glycol free and antiperspirant free cosmetic stick, a corresponding matrix soluble form or derivative of Vitamin B5 must be used to achieve the desired benefits of hair softening, shave bump reduction and wound healing from shave cut damage. For example, if an incompatible or insoluble form of Vitamin B5 is used, such as panthenol, this will not form a homogenous one phase solution when the ingredients are blended and heated together from the melt.
As such, the Vitamin B5 derivative utilized should be soluble in the anhydrous, hydrophobic, glycol free and antiperspirant free matrix.

A short description of series [2]: Thiol Vapor Pressure Suppression (TVPS) index, headspace butanethiol by zNose fast GC. In kind it is physicochemical. Particulars: 5 µl compound vs 100 µl of 1% v/v butanethiol in ethanol, 37 °C for 4 hours; percentage reduction in butanethiol peak area. The text has this:
Thiol Vapor Pressure Suppression (TVPS) index is a measure of the reduction in butanethiol concentration in the headspace by a compound, as measured using a fast GC instrument, the zNose 7100 (Electronic Sensor Technologies, Newbury Park, CA). Before any measurements the instrument is calibrated according to manufacturer's instructions under the same experimental settings. The instrument has a DB-5 column (EST Part No.SYS7100C5, Electronic Sensor Technologies, Newbury Park, CA) 1 m in length, 0.25 µm phase thickness, and 0.25mm in diameter. […]
TVPS of a compound is measured in the following way: 100 µl ± 1 µl of a 1% v/v butanethiol (99%, purity) solution in ethanol (200 proof) is added into a 1 ml vial (8 x 40 mm). […]
The amount of butanethiol in the headspace is measured from the area of the peak on the chromatograph for butanethiol (ABtSH,Rx). To calculate the percentage of butanethiol reduction in the headspace, a control with the butanethiol solution without the volatile material is run in the same manner and the area is measured as well (ABtSH,C). TVPS is then measured as the percentage reduction in butanethiol area calculated using the following formula: TVPS = (ABtSH,C −ABtSH,Rx)/(ABtSH,C) × 100 [formula]

As to Panthenyl Ethyl Ether, in series [1], the “Solublility in hydrophobic Anhydrous, glycol free, antiperspirant free Stick formulations” value is listed as “Soluble”.

Turning to `CC(=O)OCCCNC(=O)[C@H](OC(C)=O)C(C)(C)COC(C)=O` [Panthenyl Triacetate], in series [1], the “Solublility in hydrophobic Anhydrous, glycol free, antiperspirant free Stick formulations” value is given as “Soluble”.

Take `CC(C)c1cccc(C(C)CC=O)c1` (stereo not drawn) [Florhydral]: the TVPS in series [2] is listed as 50.5.
